The source of these data is patent US20050187409A1, “Inhibitors of RNase P proteins as antibacterial compounds” (priority 2003, published 2005).

The target of data set [1] is N. gonorrhea RNase P (M1 RNA + C5 protein) (Neisseria gonorrhoeae, UniProt Q5F4W3). Briefly: Time resolved fluorescence (TRF) RNase P inhibition assay. It counts as biochemical. As to conditions: 30 min enzyme reaction, ptGLN substrate; read-out: N. gonorrhoeae TRF IC50(μM) (Example 15). An excerpt:
The ability of compounds of the invention to inhibit RNase P enzymes can be assessed by standard techniques. For example, the cleavage of ptRNA^Gln by the enzyme N. Gonorrhea RNase P, can be monitored in the presence and absence of a candidate compound as described in the Example 15. The progress of the RNase P-mediated cleavage reaction can be assessed by measuring the […] hybridized to the cleaved substrate.
Time Resolved Fluorescence RNase P Inhibition Assay
96-well Nunc MaxiSorp FluoroNunc plates were coated with 50 μl/well of 1 μg/ml of streptavidin in base buffer (150 mM KCl, 5 mM MgCl2, 50 mM Tris, pH 7.6) and incubated overnight. The plates were washed using TRF.96 protocol, and then blocked with 150 μl of a 1 mg/ml BSA solution in base buffer and incubated with shaking for sixty minutes. The plates were then washed twice with base buffer plus 0.01% Tween20. 50 μl of 40 nM T17-bt (biotinylated DNA oligonucleotide complementary to the RNaseP substrate leader sequence used to capture intact RNaseP substrate) was then added to all wells, and the plates were incubated with shaking for 1 hr.
A 0.4 nM solution of N. gonorrhea M1 RNA was made from a 1 μM stock solution. A 0.5 nM solution of N. gonorrhea C5 protein is made by diluting a 10 μM stock. ΔUL-ptGLN UTP-bt (10 μM stock) was diluted into PA buffer for a concentration of 40 nM.
Compounds were serially diluted in DMSO from 20 mM stocks to 6, 2, 0.6, 0.2, and 0.06 mM dilutions. These titrations were then diluted (2 μl to 100) in PA buffer, and 12.5 μl of each concentration was added in duplicate to a 96-well V-bottom polypropylene plate. The highest concentration was put in row G and the lowest in row B. Rows A & H received 12.5 μl of DMSO/PA buffer.
The enzyme reaction was initiated in the V-bottom polypropylene plates containing compound dilutions by adding 12.5 μl of the N. gonorrhea M1 solution to rows A-G. PA buffer was added to row H. 12.5 μl of the C5 solution was added similarly to the M1 solutions. 12.5 μl of the substrate solution was then added to all wells. The plates were incubated for 30 minutes at which time 12.5 μl of stop buffer was added to all wells. (Stop buffer: 500 μg/ml polyC/50 nM SA-Eu in 335 mM MgCl2 PA buffer).
The T17-biotin-coated plate was washed three times, and 37.5 μl of 75 mM MgCl2 PA buffer was added to each well. After 30 minutes incubation with the stop buffer, 12.5 μl from all of the enzyme reaction wells was transferred to the T17 plates. The plates were then incubated for 1.5 hr at room temperature with shaking. The plates were washed three times and 40 μl of Delfia enhancement solution (Wallac Oy) was added to all wells. The plates were then read on the Victor 2 plate reader.

Data set [2] deals with T1, N. gonorrhoeae RNase P holoenzyme (Neisseria gonorrhoeae, UniProt Q5F4W3).
T1 sequence (Q5F4W3 1-121): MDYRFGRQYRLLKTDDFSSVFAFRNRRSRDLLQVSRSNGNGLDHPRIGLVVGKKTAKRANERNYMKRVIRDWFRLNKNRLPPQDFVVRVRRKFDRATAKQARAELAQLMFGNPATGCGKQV
Briefly: biochemical. Particulars: 32P-labelled pGln substrate, room temperature; read-out: N. gonorrhoeae Gel assay IC50(μM) (Example 16). The protocol:
RNase P Inhibition Polyacrylamide Gel Assay
The substrate, the precursor of tRNA^Gln, (pGln), from Synechocystis (Pascual and Vioque, 1999), was synthesized in vitro from the corresponding cDNA by T7 RNA polymerase in the presence of α^32P-GTP. Each control RNase P reaction of 10 μl contained 50 mM Tris-HCl (pH 7.8), 10 mM MgCl2, 100 mM NH4Cl, 1 mM dithiothreitol, and 0.4-1.0 pmol pGln substrate, radiolabeled to a specific activity of 1000-10,000 cpm/pmol. The reaction mixture, containing 0.1-1 nM holoenzyme, was incubated for 5-60 min at room temperature (18-24° C.), and the reaction was terminated by addition of an equal volume of 40 mM EDTA/8 M urea. The samples were electrophoresed in denaturing 8% polyacrylamide gels. The activity was quantified by exposure of the gel to a phosphorimaging screen. For test reactions that require the addition of compounds, the RNA subunits were pre-incubated with compound for 10 min at room temperature in the presence of buffer, followed by addition of the protein subunit. After a further 10 minutes of incubation, the radiolabeled substrate was added, and the reaction initiated. Products were analyzed as just described. The IC50 was the concentration of compound that was required to inhibit RNase P activity by 50%.

The nature of data set [3]: Cellular toxicity assay (MTS) on PBMC. It counts as cell-based, human. Particulars: human, peripheral blood mononuclear cells (PBMC); 24 hours incubation, MTS reagent; read-out: PBMC's TC50. As for the experimental part:
(§1) Compounds of the invention (see Table 6) were assayed for cellular toxicity as follows. Whole blood was drawn from a volunteer, and the red cells were separated from the buffy coat cells by centrifugation over ficoll-paque. The resulting peripheral blood mononuclear cells (PBMC) were collected from the interface and washed extensively with PBS by centrifugation to remove platelets and cellular debris. The cells were then plated in 96-well tissue culture plates at a density of 5×10^5 cells per mL at 200 μL per well. After an hour incubation, the candidate compounds were added at the appropriate concentrations diluted from DMSO stocks into assay buffer (RPMI medium supplemented with 10% FCS). The cells were incubated at 37° C., 100% humidity and 5% CO2 for 24 hours at which time MTS reagent was added per the manufacturer's (Promega) instructions. After 2-3 hours incubation the optical density of the wells was read on a spectrophotometer. […] The data are evaluated using equation 2 as described in Example 17, where bacterial cells are replaced by PBMC cells in the measurements. The data describes the toxicity of these compounds to a representative human cell population (PBMC's).
In general terms: Tetrazolium assays rely on reduction of a dye to a coloured formazan, in cell work by metabolically active cells.

The test system of a further data set is S. pyogenes. The data set can be described thus: Bacterial inhibition assay (growth, OD readout). As to conditions: CAMHB-3% LHB medium, 35° C., 16-20 hours. The class given is cell-based. As for the experimental part:
(§2) Compounds of the invention (see Table 5) were assayed for their ability to inhibit bacterial growth. Compounds were diluted from 10 mM DMSO stocks to 3 mM and 1 mM in DMSO. The compounds were further diluted from these stocks into saline for 200, 120, and 20 μM stocks. Control antibiotics were diluted similarly. Overnight cultures of bacteria were made in the following manner. N. gonorrhea was streaked onto a chocolate agar plate and incubated at 35° C./5% CO2. Rather than make an overnight culture of S. pyogenes, a loopful of S. pyogenes from a blood plate or a stock plate was used the following day for direct cell suspension.
(§3) On the following day bacteria were prepared by dilution into saline with O.D. […] readings taken to determine the concentration of the bacteria. CFUs (colony forming units) were determined using the formula: CFU/mL=OD625×(1.5×10^8 CFU/mL/OD McFarland std)×dilution. The four bacterial cultures were diluted initially to 5.5×10^7 CFU/mL. The bacteria were then further diluted into medium to 5.5×10^5 CFU/mL for S. pyogenes and 5.5×10^6 CFU/mL for N. gonorrhea. S. pyogenes and N. gonorrhea were grown in CAMHB-3% LHB medium. The bacteria were added one per plate at 200 μL per well. Compounds were added in 10 μL aliquots for final concentrations of 10, 3, and 1 μM in duplicate. Control antibiotics, penicillin for S. pyogenes and ciprofloxacin for N. gonorrhea, were added from 0.8 mg/ml to 0.003 mg/ml. Plates were incubated at 35° C. with O2 for 16-20 hours for S. pyogenes, and read at OD665 in a Victor2 plate reader. Plates were incubated at 35° C. with 5% CO2 for 24 hours for N. gonorrhea at which time 40 μL of MTS reagent is added per well and incubated for 1 hour in same incubator. The plates were read at OD490. Compounds were tested at 1 μM, 3 μM, and 10 μM concentrations. The results, which are expressed as a percentage of the control, were calculated using equation 2. In this equation, O.D. is optical density; (O.D. compounds+bacteria) is the optical density observed for bacteria grown in the presence of a compound of the invention; (O.D. blank) is the optical density in the absence of bacteria; and (O.D. bacteria) is the optical density observed for bacteria growing uninhibited. Other RNase P inhibitors may be tested similarly using any bacteria of interest. [formula]

The test system of another data set is N. gonorrhoeae. Briefly: Bacterial inhibition assay (growth, MTS readout). It counts as cell-based. As to conditions: CAMHB-3% LHB medium, 35° C., 5% CO2, 24 hours. As for the experimental part:
as §2, §3

In data set [4] the test system is peripheral blood mononuclear cells (PBMC). Briefly: Cellular toxicity assay (MTS) on PBMC. The class given is cell-based, human. As to conditions: 24 hours incubation, MTS reagent; read-out: PBMC's TC50. As for the experimental part: as §1

Structures are written as SMILES. ≈ marks a conversion by molar mass, not a printed value. Where “and” joins values, the source holds several entries; their conditions need not be identical. Identical values can stand only once.

Turning to `CC(=NNC(=N)N)c1ccc(NC(=O)c2ccc(C(C)=NNC(=N)N)cc2)cc1` [MES 10948, Bisguanylhydrazone of 4-acetyl-N-(4-acetylphenyl)benzamide], the 50% inhibitory concentration (IC50) in data set [1] is 3 µM; in data set [2], 2 µM and 1 µM. Also, the CC50 at 24 h in data set [3] is above 100 µM. Moreover, the MIC against S. pyogenes (Streptococcus pyogenes) is 0.3 µM (≈ 0.118 µg/mL); in the data set with N. gonorrhoeae (Neisseria gonorrhoeae), 3 µM (≈ 1.18 µg/mL).
As for `CC(=NNC(=N)N)c1cccc(NC(=O)[C@H](Cc2ccc(-c3ccccc3)cc2)NC(=O)c2cccc(I)c2)c1` [MES 10908, Guanylhydrazone of (S)-1-(3-iodobenzoyl)-N-(3-acetylphenyl)biphenyl-alaninamide], the half-maximal inhibitory concentration (IC50) is 5 µM in data set [1] and 6 µM in data set [2]. In addition, the CC50 in data set [4] was determined as 5 µM. Further, the minimum inhibitory concentration (MIC) was 10 µM (≈ 6.45 µg/mL) in the data set on S. pyogenes and above 100 µM against N. gonorrhoeae.
As for `CC(=NNC(=N)N)c1ccc(C(=O)Nc2cccc(C(C)=NNC(=N)N)c2)cc1` [MES 10648, Bisguanylhydrazone of 4-acetyl-N-(3-acetylphenyl)benzamide], the IC50 worked out at 5 µM in data set [1] and 2 µM in data set [2]. The CC50 at 24 h in data set [3] was above 100 µM. The results for the minimal inhibitory concentration (MIC) with S. pyogenes (Streptococcus pyogenes) and in the data set on N. gonorrhoeae (Neisseria gonorrhoeae) were 1 µM (≈ 0.393 µg/mL) and 10 µM (≈ 3.93 µg/mL), respectively.

Broadly, the IC50 is the point on the concentration scale where inhibition reaches its midpoint. As usually defined, the MIC is the lowest concentration found to suppress growth.
